Measured values as given in patent US8063071B2 (GlaxoSmithKline, LLC, priority 2007, dated 2011).
Counter-ions that a name gives are not always drawn.

Columns and labels:
[1] = target: T1, Recombinant human IKKβ (residues 1-737) (Homo sapiens, UniProt O14920); experiment: IKK2 assay (TR-FRET); type: biochemical; conditions: ATP 1 μM final, read-out: pIC50 against IKK2 (converted)
T1 construct: Recombinant human IKKβ (residues 1-737); GST (C); made in house
T1 sequence (O14920 1-737): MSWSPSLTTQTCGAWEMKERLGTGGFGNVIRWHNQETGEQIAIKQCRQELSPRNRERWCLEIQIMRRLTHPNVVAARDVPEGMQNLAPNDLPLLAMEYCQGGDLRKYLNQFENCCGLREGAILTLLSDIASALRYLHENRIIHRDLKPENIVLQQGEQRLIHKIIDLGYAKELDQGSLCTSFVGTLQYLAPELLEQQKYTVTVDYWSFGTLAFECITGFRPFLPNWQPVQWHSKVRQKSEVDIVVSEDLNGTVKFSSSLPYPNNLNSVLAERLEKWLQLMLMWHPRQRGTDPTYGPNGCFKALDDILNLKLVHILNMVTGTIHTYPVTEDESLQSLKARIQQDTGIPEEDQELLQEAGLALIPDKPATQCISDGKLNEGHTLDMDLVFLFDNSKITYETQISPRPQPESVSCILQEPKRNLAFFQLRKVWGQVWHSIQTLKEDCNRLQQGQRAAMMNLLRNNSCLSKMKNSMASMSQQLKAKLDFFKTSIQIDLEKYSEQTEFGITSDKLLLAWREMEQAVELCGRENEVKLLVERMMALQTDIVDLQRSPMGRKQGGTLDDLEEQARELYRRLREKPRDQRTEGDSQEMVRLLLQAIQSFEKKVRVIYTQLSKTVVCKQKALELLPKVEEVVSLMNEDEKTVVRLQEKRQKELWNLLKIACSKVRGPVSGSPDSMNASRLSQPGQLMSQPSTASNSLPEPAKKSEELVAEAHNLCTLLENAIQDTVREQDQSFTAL
Outline: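 TR-FRET readout (665 nm over 620 nm Eu reference) of GST-IB Ser32/36 phosphorylation after 60 min detection. Reaction: 1 μM ATP, 25 nM substrate, 0.5-5 nM GST-fused IKKβ 1-737 from baculovirus, pH 7.4 HEPES buffer, 1.7% DMSO, 15 min room temperature, EDTA-terminated.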

[2] = test system: human monocyte stimulated cytokine production (TNF-α); experiment: Monocyte assay (LPS-stimulated TNF-α production); type: cell-based; conditions: for IC50: 24 h, 200 ng/mL LPS, TNF-α by ELISA; for inhibition at 0.3 µM: read-out: inhibition at 300 nM in the monocyte assay
Outline: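 TNF-α release was measured by ELISA after 24 hrs at 37 C. Cells were stimulated with 200 ng/mL E. coli LPS, with compound added 30 minutes beforehand (0.1% DMSO vehicle). Cells were Ficoll/MACS-isolated CD14+ human monocytes adhered at 1×10^6 cells/mL, and viability was checked by trypan blue.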

**Q.** Which IC50 [1] does the source give for `CCS(=O)(=O)N1CCC(c2c[nH]c3c(C(N)=O)cc(-c4cccc(CNC(C)C)c4)cc23)CC1` [Example 25, 3-[1-(ethylsulfonyl)-4-piperidinyl]-5-(3-{[(1-methylethyl)amino]methyl}phenyl)-1H-indole-7-carboxamide] here?
**A.** ≤ 10 µM

**Q.** What about the IC50 [2] of the same compound?
**A.** ≤ 1.5 µM

**Q.** Which results are given for `CCS(=O)(=O)N1CCC(c2c[nH]c3c(C(N)=O)cc(-c4csc(CN(C)CCSCCO)c4)cc23)CC1` [Example 431, 3-[1-(ethylsulfonyl)-4-piperidinyl]-5-(5-{[{2-[(2-hydroxyethyl)thio]ethyl}(methyl)amino]methyl}-3-thienyl)-1H-indole-7-carboxamide]?
**A.** IC50 [1]: ≤ 10 µM; inhibition at 0.3 µM [2]: 0 to 60%

**Q.** For `CCS(=O)(=O)N1CCC(c2c[nH]c3c(C(N)=O)cc(-c4ccc(CN5CCCCC5)cc4)cc23)CC1` [Example 27, 3-[1-(ethylsulfonyl)-4-piperidinyl]-5-[4-(1-piperidinylmethyl)phenyl]-1H-indole-7-carboxamide], which IC50 [1] is on record?
**A.** ≤ 10 µM

**Q.** And the IC50 [2]?
**A.** ≤ 1.5 µM

**Q.** How did the IC50 [1] turn out when `CCS(=O)(=O)N1CCC(c2c[nH]c3c(C(N)=O)cc(-c4csc(CN(C)CCOC)c4)cc23)CC1` [Example 86, 3-[1-(ethylsulfonyl)-4-piperidinyl]-5-[5-({methyl[2-(methyloxy)ethyl]amino}methyl)-3-thienyl]-1H-indole-7-carboxamide trifluoroacetate] was run?
**A.** ≤ 10 µM

**Q.** What about the IC50 [2] of the same compound?
**A.** ≤ 1.5 µM

**Q.** Which IC50 [1] does the source give for `CCS(=O)(=O)N1CCC(c2c[nH]c3c(C(N)=O)cc(-c4cccc(CNC5CCCC5)c4)cc23)CC1` [Example 15, 5-{3-[(cyclopentylamino)methyl]phenyl}-3-[1-(ethylsulfonyl)-4-piperidinyl]-1H-indole-7-carboxamide] here?
**A.** ≤ 10 µM

**Q.** What about the IC50 [2] of the same compound?
**A.** > 1 µM

**Q.** Which IC50 [1] does the source give for `CCCNCc1cccc(-c2cc(C(N)=O)c3[nH]cc(C4CCN(S(=O)(=O)CC)CC4)c3c2)c1` [Example 24, 3-[1-(ethylsulfonyl)-4-piperidinyl]-5-{3-[(propylamino)methyl]phenyl}-1H-indole-7-carboxamide] here?
**A.** ≤ 10 µM

**Q.** What about the IC50 [2] of the same compound?
**A.** > 1 µM

**Q.** For `CCS(=O)(=O)N1CCC(c2c[nH]c3c(C(N)=O)cc(-c4cncc(CNCC(C)(C)C)c4)cc23)CC1` [Example 181, 5-(5-{[(2,2-dimethylpropyl)amino]methyl}-3-pyridinyl)-3-[1-(ethylsulfonyl)-4-piperidinyl]-1H-indole-7-carboxamide], which IC50 [1] is on record?
**A.** ≤ 10 µM

**Q.** What about the inhibition at 0.3 µM [2] of the same compound?
**A.** 0 to 60%

**Q.** How did the IC50 [1] turn out when `C=CCN(C)Cc1cc(-c2cc(C(N)=O)c3[nH]cc(C4CCN(S(=O)(=O)CC)CC4)c3c2)cs1` [Example 399, 3-[1-(ethylsulfonyl)-4-piperidinyl]-5-(5-{[methyl(2-propen-1-yl)amino]methyl}-3-thienyl)-1H-indole-7-carboxamide] was run?
**A.** ≤ 10 µM

**Q.** And the IC50 [2]?
**A.** ≤ 1.5 µM

**Q.** With `CCNCc1ccc(-c2cc(C(N)=O)c3[nH]cc(C4CCN(S(=O)(=O)CC)CC4)c3c2)s1` [Example 168, 5-{5-[(ethylamino)methyl]-2-thienyl}-3-[1-(ethylsulfonyl)-4-piperidinyl]-1H-indole-7-carboxamide] as the compound, how does the IC50 [1] read?
**A.** ≤ 10 µM

**Q.** What about the IC50 [2] of the same compound?
**A.** ≤ 1.5 µM

**Q.** For `CCS(=O)(=O)N1CCC(c2c[nH]c3c(C(N)=O)cc(-c4ccc(C5CNCCN5)cc4)cc23)CC1` (stereo not shown) [Example 299, 3-[1-(ethylsulfonyl)-4-piperidinyl]-5-[4-(2-piperazinyl)phenyl]-1H-indole-7-carboxamide trifluoroacetate], which IC50 [1] is on record?
**A.** ≤ 10 µM

**Q.** What about the IC50 [2] of the same compound?
**A.** > 1 µM

**Q.** `CCC(C)N(C)Cc1cc(-c2cc(C(N)=O)c3[nH]cc(C4CCN(S(=O)(=O)CC)CC4)c3c2)cs1` (stereo not shown) [Example 402, 3-[1-(ethylsulfonyl)-4-piperidinyl]-5-(5-{[methyl(1-methylpropyl)amino]methyl}-3-thienyl)-1H-indole-7-carboxamide] was tested. Which IC50 [1] did it give?
**A.** ≤ 10 µM

**Q.** And the IC50 [2]?
**A.** ≤ 1.5 µM

**Q.** Which results are given for `COCCN(C)Cc1cc(-c2cc(C(N)=O)c3[nH]cc(C4CCN(S(=O)(=O)C(C)C)CC4)c3c2)cs1` [Example 102, 3-{1-[(1-methylethyl)sulfonyl]-4-piperidinyl}-5-[5-({methyl[2-(methyloxy)ethyl]amino}methyl)-3-thienyl]-1H-indole-7-carboxamide]?
**A.** IC50 [1]: ≤ 10 µM; IC50 [2]: ≤ 1.5 µM

**Q.** For `CCS(=O)(=O)N1CCC(c2c[nH]c3c(C(N)=O)cc(-c4csc(CN5CCC[C@@H]5COC)c4)cc23)CC1` [Example 124, 3-[1-(ethylsulfonyl)-4-piperidinyl]-5-[5-({(2R)-2-[(methyloxy)methyl]-1-pyrrolidinyl}methyl)-3-thienyl]-1H-indole-7-carboxamide trifluoroacetate], which IC50 [1] is on record?
**A.** ≤ 10 µM

**Q.** And the IC50 [2]?
**A.** ≤ 1.5 µM

**Q.** What does the source list for `CCS(=O)(=O)N1CCC(c2c[nH]c3c(C(N)=O)cc(-c4cccc(CN5CCCC(CO)C5)c4)cc23)CC1` (stereo not shown) [Example 7, 3-[1-(ethylsulfonyl)-4-piperidinyl]-5-(3-{[3-(hydroxymethyl)-1-piperidinyl]methyl}phenyl)-1H-indole-7-carboxamide]?
**A.** IC50 [1]: ≤ 10 µM; IC50 [2]: ≤ 1.5 µM

**Q.** What does the source list for `CCS(=O)(=O)N1CCC(c2c[nH]c3c(C(N)=O)cc(-c4csc(CN5CCCC5c5ccccc5)c4)cc23)CC1` (stereo not shown) [Example 46, 3-[1-(ethylsulfonyl)-4-piperidinyl]-5-{5-[(2-phenyl-1-pyrrolidinyl)methyl]-3-thienyl}-1H-indole-7-carboxamide]?
**A.** IC50 [1]: ≤ 10 µM; inhibition at 0.3 µM [2]: 0 to 60%

**Q.** What does the source list for `CCOCCCNCc1ccc(-c2cc(C(N)=O)c3[nH]cc(C4CCN(S(=O)(=O)CC)CC4)c3c2)s1` [Example 193, 5-[5-({[3-(ethyloxy)propyl]amino}methyl)-2-thienyl]-3-[1-(ethylsulfonyl)-4-piperidinyl]-1H-indole-7-carboxamide]?
**A.** IC50 [1]: ≤ 10 µM; IC50 [2]: > 1 µM

**Q.** Which IC50 [1] does the source give for `CCS(=O)(=O)N1CCC(c2c[nH]c3c(C(N)=O)cc(-c4ccc(CNC)cc4)cc23)CC1` [Example 139, 3-[1-(ethylsulfonyl)-4-piperidinyl]-5-{4-[(methylamino)methyl]phenyl}-1H-indole-7-carboxamide trifluoroacetate] here?
**A.** ≤ 10 µM

**Q.** And the IC50 [2]?
**A.** ≤ 1.5 µM

**Q.** What does the source list for `CC(C)S(=O)(=O)N1CCC(c2c[nH]c3c(C(N)=O)cc(-c4csc(CN5CCC[C@@H]5CO)c4)cc23)CC1` [Example 394, 5-(5-{[(2R)-2-(hydroxymethyl)-1-pyrrolidinyl]methyl}-3-thienyl)-3-{1-[(1-methylethyl)sulfonyl]-4-piperidinyl}-1H-indole-7-carboxamide]?
**A.** IC50 [1]: ≤ 10 µM; IC50 [2]: ≤ 1.5 µM

**Q.** What does the source list for `CC(C)S(=O)(=O)N1CCC(c2c[nH]c3c(C(N)=O)cc(-c4csc(CN(C)C)c4)cc23)CC1` [Example 220, 5-{5-[(dimethylamino)methyl]-3-thienyl}-3-{1-[(1-methylethyl)sulfonyl]-4-piperidinyl}-1H-indole-7-carboxamide trifluoroacetate]?
**A.** IC50 [1]: ≤ 10 µM; IC50 [2]: ≤ 1.5 µM

**Q.** What does the source list for `CCS(=O)(=O)N1CCC(c2c[nH]c3c(C(N)=O)cc(-c4csc(CN(C)CCc5ccccn5)c4)cc23)CC1` [Example 76, 3-[1-(ethylsulfonyl)-4-piperidinyl]-5-[5-({methyl[2-(2-pyridinyl)ethyl]amino}methyl)-3-thienyl]-1H-indole-7-carboxamide trifluoroacetate]?
**A.** IC50 [1]: ≤ 10 µM; IC50 [2]: ≤ 1.5 µM

**Q.** Which results are given for `CCS(=O)(=O)N1CCC(c2c[nH]c3c(C(N)=O)cc(-c4cc(F)cc(CN[C@H](C)C(C)(C)C)c4)cc23)CC1` [Example 320, 3-[1-(ethylsulfonyl)-4-piperidinyl]-5-[3-fluoro-5-({[(1R)-1,2,2-trimethylpropyl]amino}methyl)phenyl]-1H-indole-7-carboxamide trifluoroacetate]?
**A.** IC50 [1]: ≤ 10 µM; IC50 [2]: ≤ 1.5 µM

**Q.** Which results are given for `CCCN(CCC)CCc1cccc(-c2cc(C(N)=O)c3[nH]cc(C4CCN(S(=O)(=O)CC)CC4)c3c2)c1` [Example 349, 5-{3-[2-(dipropylamino)ethyl]phenyl}-3-[1-(ethylsulfonyl)-4-piperidinyl]-1H-indole-7-carboxamide trifluoroacetate]?
**A.** IC50 [1]: ≤ 10 µM; inhibition at 0.3 µM [2]: 0 to 60%

**Q.** With `CCS(=O)(=O)N1CCC(c2c[nH]c3c(C(N)=O)cc(-c4ccc(CNC(C)C)s4)cc23)CC1` [Example 169, 3-[1-(ethylsulfonyl)-4-piperidinyl]-5-(5-{[(1-methylethyl)amino]methyl}-2-thienyl)-1H-indole-7-carboxamide] as the compound, how does the IC50 [1] read?
**A.** ≤ 10 µM

**Q.** And the IC50 [2]?
**A.** ≤ 1.5 µM
